For assay [1], the system named is B16/BL6 cells. Put plainly: MHC class-I molecule expression promoting activity. It is filed as cell-based, mouse. Particulars: for MHC class-I molecule expression promoting action: FIGS. 3 and 4, dependence on concentration of addition; for Twice Promoting Concentration Cx2: concentration at which MHC class-I expression is twice that without addition; for Twice Promoting Concentration Cx2 / conc. for 2-fold expression (nM) mean: 72 hours; for conc. for 2-fold expression (nM) mean: mean of a plurality of assays.

Assay [2] deals with mouse malignant melanoma B16/BL6 cell line. Format: cell-based. Particulars: 72 hours; read-out: 50% proliferation inhibiting concentration B16/BL6 (nM) mean. From the text:
(§1) In order to verify the action of the cyclic tetrapeptide derivative according to the present invention in inhibiting cell proliferation in cancerized cells, the action on the proliferation of the aforementioned B16/BL6 cells was investigated. The evaluation of cell proliferation rates was done utilizing a commercially available measuring kit, specifically, from Promega under the trade name CellTiter 96 Aqueous Non-Radioactive Proliferation Assay Kit. In the measuring kit, the amount of products through reduction of a reagent tetrazolium compound (3-(4,5-dimethylthiazol-2-yl)-5-(3-carboxymethoxyphenyl)-2-(4-sulfophenyl)-2H-tetrazolium, inner salt; MTS) by viable animal cells is determined by detecting spectrophotometrically the color generated from the products. Since the amount of products is proportional to the amount of viable cells, this kit is utilized to evaluate the amount of viable cells.
According to the procedure of Test Example 1, B16/BL6 cells are inoculated in a 96 well microplate and cultured for 24 hours. […] Thereafter, culture is continued for additional 48 hours and 20 μl of a reagent solution in the aforementioned CellTiter 96 Aqueous Non-Radioactive Proliferation Assay Kit is then added. After incubation is continued at 37° C. for 1 hour, the amount of color generation is measured as an absorbance at 490 n musing a microplate reader.
(§2) The amount of cell proliferation of a group to which a compound to be tested is added is expressed in a relative value as compared to the standard cell proliferation (100%) in a control group to which no compound to be tested is added. For each compound tested, the amounts of cell proliferation were measured at different concentrations of addition and the dependence of the quantitative cell proliferation on the concentration of addition was investigated.
(§3) The test method was in accordance with the above-mentioned procedure, except that the period of incubation after the addition of a compound was 72 hours.

In assay [3] the test system is B16/BL6 cells. Put plainly: Inhibitory effect on cell proliferation (MTS, 48 hours). Format: cell-based, mouse. Particulars: 48 hours after addition; read-out: 50% inhibiting concentration.
Description: as §1
(§4) According to the procedure of Test Example 1, B16/BL6 cells are inoculated in a 96 well microplate and cultured for 24 hours. Then, 10 μl of a solution of the source solution of a compound to be tested which has been diluted to a predetermined amount per well is added. Thereafter, culture is continued for additional 48 hours and 20 μl of a reagent solution in the aforementioned CellTiter 96 Aqueous Non-Radioactive Proliferation Assay Kit is then added. After incubation is continued at 37° C. for 1 hour, the amount of color generation is measured as an absorbance at 490 n musing a microplate reader.
as §2, with “investigated. From the results, a concentration of addition at which the amount of cell proliferation was inhibited by 50% relative to the amount of cell proliferation in the control group without addition was determined.” for “investigated.”

For assay [4], the system named is mouse malignant melanoma B16 cell line. Put plainly: Cell proliferation inhibition (72 hours). Format: cell-based. To be noted: read-out: 50% proliferation inhibiting concentration B16 (nM) mean.
Description: as §1, §4
as §2, with “investigated. From the results, a concentration of addition at which the amount of cell proliferation was inhibited by 50% relative to the amount of cell proliferation in the control group without addition was determined.” for “investigated.”
as §3
(§5) As illustrative examples, results are shown for an evaluation using mouse malignant melanoma B16/BL6 and B16 cell lines; leukemia L1210 cell line, colon cancer Colon26 cell line, and liver cancer MH134 cell line as cancer cells. For the cell proliferation inhibiting action of each compound tested for these cancer cells, 50% proliferation inhibiting concentrations are shown in Table 4.

The subject of assay [5] is colon cancer Colon26 cell line. Put plainly: Cell proliferation inhibition (72 hours). To be noted: read-out: 50% proliferation inhibiting concentration Colon 26 (nM) mean. It is filed as cell-based, mouse.
Description: as §1, §4
as §2, with “investigated. From the results, a concentration of addition at which the amount of cell proliferation was inhibited by 50% relative to the amount of cell proliferation in the control group without addition was determined.” for “investigated.”
as §3, §5

Assay [6] concerns liver cancer MH134 cell line. Put plainly: Cell proliferation inhibition (72 hours). Format: cell-based, mouse. To be noted: read-out: 50% proliferation inhibiting concentration MH134 (nM) mean.
Description: as §1, §4
as §2, with “investigated. From the results, a concentration of addition at which the amount of cell proliferation was inhibited by 50% relative to the amount of cell proliferation in the control group without addition was determined.” for “investigated.”
as §3, §5

In assay [7] the test system is leukemia L1210 cell line. Description: Cell proliferation inhibition (72 hours). Format: cell-based, mouse. To be noted: read-out: 50% proliferation inhibiting concentration L1210 (nM) mean.
Description: as §1, §4
as §2, with “investigated. From the results, a concentration of addition at which the amount of cell proliferation was inhibited by 50% relative to the amount of cell proliferation in the control group without addition was determined.” for “investigated.”
as §3, §5

In assay [8] the test system is B16/BL6 cells. Description: Inhibitory effect on histone deacetylation in cells (AUT gel electrophoresis). Particulars: Example 1 added at 10 μM, trichostatin A at 1 μM; 6 hours; histone H4 bands. Format: cell-based, mouse. As for the experimental part:
In a culture flask of 75 ml in capacity, 1.5×10^5 B16/BL6 cells were inoculated and preliminarily cultured for 4 days. Then, a given amount of a compound to be tested was added and subsequently cultured for 6 hours. Thereafter, cells were striped using 0.25% trypsin enzyme solution, washed once with PBS and stored temporarily at −80° C.
From this cell sample, histone was separated from chromatin and collected together with other proteins in a conventional manner. The resulting protein sample was subjected to AUTgel electrophoresis in an amount of 1 μg/lane. Said gel was stained with silver to detect bands separated by the migration.
The result on a control group in which no compound to be tested was added is also shown.

Assay [9] addresses histone deacetylase. Description: Histone deacetylase enzyme inhibiting activity, synthetic peptide substrate. Format: biochemical, mouse. Particulars: enzyme from B16/BL6 cells; [3H]acetylated histone H4 peptide; 37° C. 3 hours. The method, then:
The preparation of histone deacetylase was performed essentially according to the method of Yoshida et al. (J. Biol. Chem., 265,17174-17179, 1990). The enzyme to be used was partially purified from B16/BL6 cells. The cells were suspended in HDA buffer (15 mM potassium phosphate, 5% glycerol, 0.2 mM EDTA, […], pH 7.5), homogenized and centrifuged (2500×g, 10 min) to collect the nuclei, which in turn were homogenized in the same buffer containing 1 M (NH4)2SO4. After ultrasonic disruption and centrifugation, the concentration of (NH4)2SO4 in the collected supernatant was increased to 3.5 M to precipitate histone deacetylase. This precipitate was redissolved in HDA buffer, subjected to gel filtration to replace the solvent with HDA buffer, and used as a crude histone deacetylase enzyme solution.
As a substrate, a synthetic substrate peptide, [^3H]acetylated histone H4 peptide was used. This [^3H]acetylated histone H4 peptide was obtained by synthesizing the N-terminal peptide of histone H4; […] (the C-terminal being cysteine) and radio-acetylating with ^3H -acetic anhydride.
An assay was performed by incubating the synthetic substrate solution and the enzyme solution at 37° C. for 3 hours in the presence of a compound to be tested (reaction volume, 100 μl). The reaction was stopped by adding 25 μl of 1 M HCl and 0.2 M acetic acid and [^3H]acetate excised by the enzyme reaction was extracted with ethyl acetate for radioactivity measurement. As a control group, the same procedure was repeated without addition of any test compound to the reaction system. The inhibiting activity was expressed by a concentration at which the histone deacetylase enzyme activity in the control group was inhibited by 50% (50% inhibiting concentration).

Non-standard residues stand in square brackets, D forms with d. Residues, ends and D or L forms follow the SMILES beside them. ξ: configuration not given here. *: point of attachment. Asu = N[C@@H](CCCCCC(=O)O)C(=O)O; ξPip = O=C(O)C1CCCCN1; Aib = CC(C)(N)C(=O)O; NHOH = ON*

Take `CC(C)C[C@@H]1NC(=O)[C@@H](Cc2ccccc2)NC(=O)[C@H](CCCCCC(=O)NO)NC(=O)C2CCCCN2C1=O` (stereo partly drawn) [HDA-12, cyclo(-Asu(NHOH)-D-Phe-Leu-Pip-)] (cyclo([Asu](NHOH)[dF]L[ξPip])): the “MHC class-I molecule expression promoting action” value in [1] is recorded as “exhibited MHC class-I molecule expression promoting action”. Besides, the “Twice Promoting Concentration Cx2” value in assay [1] is 3.86 nM. In assay [1], the “conc. for 2-fold expression (nM) mean” value is 2.75 nM. Moreover, the IC50 was determined as 9.44 nM in [2]; 12.3 nM in assay [3]; 262 nM in assay [4]; 149 nM in assay [5]; 112 nM in assay [6]; 28.3 nM in [7].

Consider `CC1(C)NC(=O)[C@H](CCCCCC(=O)NO)NC(=O)[C@H]2CCCN2C(=O)[C@H](Cc2ccccc2)NC1=O` [HDA-15, cyclo(-Asu(NHOH)-Aib-Phe-D-Pro-)] (cyclo([Aib]F[dP][Asu](NHOH))), for which, in [1], the “MHC class-I molecule expression promoting action” value is “exhibited MHC class-I molecule expression promoting action”. For the same compound, the “Twice Promoting Concentration Cx2” value in assay [1] is on record as 36.2 nM. Moreover, the “conc. for 2-fold expression (nM) mean” value in [1] is reported as 33.2 nM. For the same compound, the IC50 in [2] amounted to 110 nM; in assay [3], 92.5 nM; in assay [4], 1230 nM; in assay [5] it was 908 nM; in assay [6], 946 nM; in assay [7] it was 193 nM.

With `CC(/C=C/C(=O)NO)=C\[C@@H](C)C(=O)c1ccc(N(C)C)cc1` [Trichostatin A, trichostatin A, reference compound], in [1], the “MHC class-I molecule expression promoting action” value is “MHC class-I molecule expression promoting action was confirmed”. Further, the “MHC class-I molecule expression promoting activity” value in assay [1] (allowed to act on animal cells (summary statement)) is “promotes the expression of MHC class-I molecule”. For the same compound, the “Twice Promoting Concentration Cx2” value in [1] is listed as 3.35 nM. Moreover, the IC50 in assay [2] amounted to 19.1 nM; in assay [3], 14.3 nM; in assay [4], 621 nM; in [5], 139 nM; in assay [6] it was 41.7 nM; in [7], 12.4 nM. The IC50 in assay [9] came out at 2.55 nM. In assay [8], the “inhibitory effect on histone deacetylation” value was “a total of 5 discrete bands are clearly seen in this region”.

(Values after patent US6399568B1, “Cyclic tetrapeptide derivatives and medicinal use thereof” (Japan Energy Corporation, priority 1997, dated 2002).)
